Reference: PubChem BioAssay AID588552 (Johns Hopkins Ion Channel Center, 2011)
Activity calls are given as the source filed them.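 How the source made its calls: active means compounds whose IC50 for blocking RGS4-driven GTP breakdown by the G-protein falls below a set limit; inactive means IC50 above a set limit.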

Each compound was assayed against Regulator of G-protein signaling 4 (Rattus norvegicus) (UniProt P49799) (assay: inhibitors of RGS4 GAP activity on Galphai1, confirmation, biochemical, rat RGS4, steady-state, receptor-independent, malachite green (AID 588552)). Details: RGS4-stimulated Galphai1 GTPase, malachite green phosphate absorbance.
Sequence of Regulator of G-protein signaling 4 (Rattus norvegicus) (P49799 whole entry, looked up): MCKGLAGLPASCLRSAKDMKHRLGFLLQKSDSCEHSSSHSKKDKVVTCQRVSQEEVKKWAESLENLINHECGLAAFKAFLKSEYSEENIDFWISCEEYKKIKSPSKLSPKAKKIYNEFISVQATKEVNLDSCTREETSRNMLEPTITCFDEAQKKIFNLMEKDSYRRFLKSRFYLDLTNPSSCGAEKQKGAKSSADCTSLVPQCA

SMILES	IC50
CN(C)c1oc(-c2ccccc2[N+](=O)[O-])nc1C#N	18.6 µM
CC(C)OP(=O)(OC(C)C)/C(C=O)=N\Nc1ccc([N+](=O)[O-])cc1	> 110 µM (inactive)
Cc1c(NC(=O)c2coc(=O)c(Br)c2)c(=O)n(-c2ccccc2)n1C	> 110 µM (inactive)
CCOC(=O)/C=C/C(=O)OCC(=O)N1CCN(C(=O)c2ccco2)CC1	> 110 µM (inactive)
O=C1/C(=C\c2ccc(Cl)c(Cl)c2)N2CCC1CC2	> 110 µM (inactive)
Cc1cc2nc(CS)[nH]c2cc1C	> 110 µM (inactive)
O=C(O)c1ccc2c(c1)C(=O)N(c1cccc(C(=O)/C=C/c3ccccc3)c1)C2=O	23.2 µM
CCCN1CCc2cc(O)cc3c2[C@H]1Cc1ccc(O)c(O)c1-3	11 µM
CCOC(=O)C1=C(O)/C(=C\c2cccc(OC)c2)N=C1C	> 110 µM (inactive)
O=C(N/N=C/c1cc([N+](=O)[O-])ccc1O)NC12CC3CC(CC(C3)C1)C2	> 110 µM (inactive)
CC1=NOC(=O)/C1=C/c1ccc(O)cc1	> 110 µM (inactive)
CN(C)C(=O)COc1ccc(C(=O)/C=C/c2cccnc2)cc1	59.4 µM
CC(C)(C)c1ccc(Cn2nnc3c(=O)[nH]c(C4CCN(C(=O)Cc5cccs5)CC4)nc32)cc1	> 110 µM (inactive)
Cc1nc2c(=O)n(C)c(=O)n(C)c2nc1Cl	> 110 µM (inactive)
CCOCCCNC(=O)/C(C#N)=C\c1ccc([N+](=O)[O-])o1	10.7 µM
O=C(O)c1ccc(/C=C/C(=O)c2ccc3c(c2)OCCCO3)cc1	34.7 µM
N#C/C(=C/c1ccc(Cl)c([N+](=O)[O-])c1)c1ccccn1	> 110 µM (inactive)
CC1=NN(c2ccc(C(=O)O)cc2)C(=O)/C1=C\c1ccc(OC(=O)c2cccs2)cc1	11.8 µM
O=C(/C=C/c1ccncc1)c1ccc2c(c1)OCCO2	31.1 µM
O=C(CCNc1ccc(F)cc1)c1ccco1	> 110 µM (inactive)

SMILES	IC50
COC(=O)CSc1[nH]c2cc(C)ccc2c1[N+](=O)[O-]	> 110 µM (inactive)
COc1cc2c(cc1O)C(SC)=NC(C)(C)C2	31.8 µM
COc1ccc(-c2csc(NC3OC(=O)c4c3ccc(OC)c4OC)n2)cc1OC (stereo not drawn)	> 110 µM (inactive)
CN1C(=O)S/C(=C\c2ccccc2OCc2ccc(C(=O)O)cc2)C1=O	76.7 µM
Cc1ccc(C(C2C(=O)CC(C)(C)CC2=O)C2C(=O)CC(C)(C)CC2=O)s1	91.4 µM
O=C1/C(=C/c2ccncc2)CCC/C1=C\c1ccncc1	9.9 µM
Cc1cc(-c2n[nH]c(=S)n2/N=C/C(Br)=C/c2ccccc2)n[nH]1	4 µM
Cc1ccc(C(C2=C(O)CC(C)(C)CC2=O)C2C(=O)CC(C)(C)CC2=O)o1 (stereo not drawn)	> 110 µM (inactive)
Cc1csc(NC(=O)COCC(=O)O)c1-c1nc2ccccc2s1	> 110 µM (inactive)
O=C/C=C/c1c(-c2ccccc2)cc2oc3ccccc3cc1-2	> 110 µM (inactive)
O=C(/C=C/c1ccc([N+](=O)[O-])cc1)c1ccco1	> 110 µM (inactive)
NC(=O)N/N=C/c1c(Sc2nnnn2-c2ccccc2)nc2ccccn2c1=O	55.5 µM
Cc1ccc(CNC(=O)c2cn(C3CCCCC3)c(=O)c3c2c2ccccc2n3C)o1	> 110 µM (inactive)
Cn1c(OCc2ccco2)nc2c1c(=O)n(Cc1ccc(Cl)c(Cl)c1)c(=O)n2C	> 110 µM (inactive)
COc1ccc(NC(=O)/C(Cl)=C(/Cl)S(=O)Cc2ccccc2)cn1 (stereo not drawn)	1 µM
COc1ccc(C(C[N+](=O)[O-])c2c(-c3ccccc3)cc3ccccn23)cc1OC (stereo not drawn)	> 110 µM (inactive)
O=C(O)c1ccc(/C=C2\COc3ccccc3C2=O)cc1	5.1 µM
Cc1ccccc1OCc1nnc(SCC(=O)Nc2ccc3c(c2)oc2ccccc23)n1C	> 110 µM (inactive)
CN1C/C(=C/c2ccncc2)C(=O)/C(=C/c2ccncc2)C1	37.1 µM
CN1C(=O)/C(=C\c2ccc(Br)s2)C(=O)NC1=S	14.8 µM

SMILES	IC50
COC(=O)CSc1[nH]c2ccccc2c1[N+](=O)[O-]	55 µM
Cc1ccc(/C=C/C(=O)N2CC(C)CC(C)C2)o1 (stereo not drawn)	16.7 µM
COc1cccc(/C=C/C(=O)c2c(O)cc(C)oc2=O)c1O	> 110 µM (inactive)
Oc1c(Cl)cc(Cl)c2c1NCCC2	37.8 µM
N[C@@H](Cc1cc(Br)c(O)c(Br)c1)C(=O)O	> 110 µM (inactive)
O=C1NC(=S)N(c2ccccc2F)C(=O)/C1=C\c1cccs1	35.6 µM
Cc1ccc(/C=C2\C(=O)NC(=S)N(c3ccc(F)cc3)C2=O)s1	11 µM
COc1ccc2cc(C3C(C#N)=C(N)OC(C)=C3C(C)=O)c(Cl)nc2c1 (stereo not drawn)	> 110 µM (inactive)
O=C1/C(=C\c2ccc(Cl)cc2Cl)N2CCC1CC2	> 110 µM (inactive)
Cc1cccc(N2C(=O)/C(=C/c3ccc(C(=O)O)cc3)c3ccccc3C2=O)c1	31.8 µM
O=[N+]([O-])c1ccc(O)c(/C=N/NC(=S)Nc2ccc(Cl)cc2Cl)c1	> 110 µM (inactive)
CN(C)c1ccc(C(C[N+](=O)[O-])c2c(N)n(C)c(=O)n(C)c2=O)c(F)c1C#N (stereo not drawn)	> 110 µM (inactive)
O=C1N=c2ccccc2=C1c1c(O)n(-c2cccc(F)c2)[nH]c1=O	55.8 µM
O=C1C=C(NC2=CC3OC(c4ccccc4)OCC3OC2=O)CCC1 (stereo not drawn)	34 µM
COc1ccc(OC)c(N2C(=O)NC(=O)/C(=C/c3ccc([N+](=O)[O-])s3)C2=O)c1	18 µM
COc1ccc(NC(=O)/C(C#N)=C\c2ccc(Sc3nncn3C)c([N+](=O)[O-])c2)cc1	> 110 µM (inactive)
CCOCCCNC(=O)/C(C#N)=C\c1ccc(Cl)c([N+](=O)[O-])c1	> 110 µM (inactive)
CN1CCc2cc(O)cc3c2[C@H]1Cc1ccc(O)c(O)c1-3	9.7 µM
